Values of other authors, collected in patent publication US20060193824A1, “Methods for the treatment of infectious and inflammatory airway diseases” (priority 2005, published 2006).

Experiments:
[1] = tested on: normal pancreatic cell lines; conditions: extracellular ATP
[2] = tested on: human airways
[3] = tested on: human airways; remark: listed apart in the source
[4] = tested on: GI tract
[5] = tested on: mucin release
[6] = tested on: mucin secretion
[7] = tested on: ferret trachea
[8] = tested on: mucin production
[9] = tested on: mucus secretion
[10] = tested on: respiratory epithelial cells

**Q.** With `Nc1ncnc2c1ncn2[C@@H]1O[C@H](COP(=O)(O)OP(=O)(O)OP(=O)(O)O)[C@@H](O)[C@H]1O` [ATP] as the compound, how does the mucin protein secretion [1] read?
**A.** rapidly increased mucin protein secretion

**Q.** Which mucin release [2] does the source give for `CCCCC/C=C\C/C=C\C/C=C\C/C=C\CCCC(=O)O` [Arachidonic acid] here?
**A.** release mucin from human airways

**Q.** With `NCCc1c[nH]cn1` [Histamine] as the compound, how does the mucous glycoprotein release [3] read?
**A.** stimulates mucous glycoprotein release

**Q.** For `CC(=O)N[C@H]1C(O)O[C@H](CO)[C@@H](O)[C@@H]1O` (some centres unmarked) [N-acetyl-glucosamine], which mucin release [4] is on record?
**A.** stimulate mucin release in the GI tract

**Q.** With `O=C(O)CNC(=O)C(CS)Cc1ccccc1` (centres unmarked) [Thiorphan] as the compound, how does the mucin release [5] read?
**A.** stimulate mucin release

**Q.** With `CC(C[N+](C)(C)C)OC(N)=O` (centres unmarked) [bethanechol] as the compound, how does the mucin secretion [6] read?
**A.** effective to stimulate mucin secretion

**Q.** For `C[N+](C)(C)CCOC(N)=O` [carbachol], which mucin secretion [6] is on record?
**A.** effective to stimulate mucin secretion

**Q.** Which mucin release [5] does the source give for `CC(C)C[C@H](NC(=O)C(CS)Cc1ccccc1)C(=O)O` (some centres unmarked) [leucine-thiorphan] here?
**A.** stimulate mucin release

**Q.** For `CC(=O)OC(C)C[N+](C)(C)C` (centres unmarked) [methacholine], which mucin secretion [6] is on record?
**A.** effective to stimulate mucin secretion

**Q.** Which mucin secretion [7] does the source give for `FC(F)(F)C(F)(F)C(F)(F)C(F)(F)C(F)(F)C(F)(F)C(F)(F)C(F)(F)Br` [perflubron, perfluorooctyl bromide] here?
**A.** stimulates mucin secretion

**Q.** Which mucin release [5] does the source give for `CC(C)C[C@H](NP(=O)(O)O[C@@H]1O[C@@H](C)[C@H](O)[C@@H](O)[C@H]1O)C(=O)N[C@@H](Cc1c[nH]c2ccccc12)C(=O)O` [phosphoramidon] here?
**A.** stimulate mucin release

**Q.** Which mucin production [8] does the source give for “Epidermal growth factor: Epidermal growth factor, EGF, which can be obtained from Sigma (NSDSECPLSHDGYCLHDGVCMYIEALDKYACNCVVGYIGERCQYRDLKWWELR; Epidermal growth factor; UniProt P01133 971-1023, looked up)” here?
**A.** effective to stimulate mucin production

**Q.** Which mucus secretagogue activity [9] does the source give for Interleukin 1 here?
**A.** mucus secretagogue

**Q.** For Tumor necrosis factor alpha, which MUC5AC release [10] is on record?
**A.** stimulate MUC5AC release
